Here are results for 19 molecules from PubChem BioAssay AID248 (DTP/NCI, 2004).

The structures appear in SMILES notation. Toxic doses and inconclusive results are not listed. Square brackets hold non-standard residues; d marks the D form. Peptide text beside a SMILES is read from it. ξ: configuration not given here. ξN = NC(=O)CC(N)C(=O)O

The test system of the experiment is L1210 leukemia ip in BDF1 mice, survival T/C. The experiment in a line: NCI In Vivo Anticancer Drug Screen. Data for tumor model L1210 Leukemia (intraperitoneal) in B6D2F1 (BDF1) mice. The conditions noted are these: endpoint: mean survival time, higher = longer survival. A digest of the protocol: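 Tumor was transplanted into mice, which were then dosed with test compound or vehicle alone. Survival was recorded for each group, and the treated figure was expressed relative to the control figure.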

Setting [1] is: dose: 12.5 mg/kg/injection, schedule: Q01DX009 (ip), vehicle: saline with Tween-80.
Where [2] appears, read: dose: 25.0 mg/kg/injection, schedule: Q01DX009 (ip), vehicle: saline with Tween-80.
Where [3] appears, read: dose: 50.0 mg/kg/injection, schedule: Q01DX009 (ip), vehicle: saline with Tween-80.
The mark [4] stands for this setting: dose: 100.0 mg/kg/injection, schedule: Q01DX009 (ip), vehicle: Klucel (hydroxypropylcellulose) (HPC).
[5] abbreviates: dose: 100.0 mg/kg/injection, schedule: Q04DX003 (ip), vehicle: Klucel (hydroxypropylcellulose) (HPC).
The mark [6] stands for this setting: dose: 200.0 mg/kg/injection, schedule: Q01DX009 (ip), vehicle: Klucel (hydroxypropylcellulose) (HPC).
Setting [7] is: dose: 200.0 mg/kg/injection, schedule: Q04DX003 (ip), vehicle: Klucel (hydroxypropylcellulose) (HPC).
The mark [8] stands for this setting: dose: 400.0 mg/kg/injection, schedule: Q01DX009 (ip), vehicle: Klucel (hydroxypropylcellulose) (HPC).
Setting [9] is: dose: 400.0 mg/kg/injection, schedule: Q04DX003 (ip), vehicle: Klucel (hydroxypropylcellulose) (HPC).
The mark [10] stands for this setting: dose: 200.0 mg/kg/injection, schedule: Q01DX009 (ip), vehicle: saline.
[11] abbreviates: dose: 100.0 mg/kg/injection, schedule: Q04DX002 (ip), vehicle: Klucel (hydroxypropylcellulose) (HPC).
Where [12] appears, read: dose: 200.0 mg/kg/injection, schedule: Q04DX002 (ip), vehicle: Klucel (hydroxypropylcellulose) (HPC).
The mark [13] stands for this setting: dose: 400.0 mg/kg/injection, schedule: Q04DX002 (ip), vehicle: Klucel (hydroxypropylcellulose) (HPC).
The mark [14] stands for this setting: dose: 100.0 mg/kg/injection, schedule: Q01DX009 (ip), vehicle: saline with Tween-80.
Setting [15] is: dose: 400.0 mg/kg/injection, schedule: Q01DX009 (ip), vehicle: saline with Tween-80.

For the molecule `CSc1nc([N+](=O)[O-])c2cnccn12`, the T/C (dose: 6.25 mg/kg/injection, schedule: Q01DX009 (ip), vehicle: saline with Tween-80) is 88 % of control; the T/C under setting [1] is 93 % of control; the T/C (dose: 12.5 mg/kg/injection, schedule: Q04DX003 (ip), vehicle: saline with Tween-80) was 101 % of control; the T/C under setting [2] was 93 % of control; the T/C (dose: 25.0 mg/kg/injection, schedule: Q04DX003 (ip), vehicle: saline with Tween-80) was 103 % of control; the T/C under setting [3] is 93 % of control.
In the case of `O=C(Nc1ccccc1Cl)N(Cc1ccccc1)c1ccccc1`, the T/C is, setting by setting: under setting [4], 99 % of control; under setting [5], 96 % of control; under setting [6], 91 % of control; under setting [7], 94 % of control; under setting [8], 94 % of control; under setting [9], 96 % of control.
Turning to `O=c1oc2cccc(O)c2c2c1CCCC2`, the T/C by setting is: under setting [4], 95 % of control; under setting [5], 97 % of control; under setting [6], 90 % of control; under setting [7], 95 % of control; under setting [8], 90 % of control; under setting [9], 93 % of control.
`CC1(C)N=C(N)N=C(N)N1c1ccc(CCC(=O)Nc2ccc(S(=O)(=O)F)cc2)cc1`: the T/C is 97 % of control (dose: 0.8 mg/kg/injection, schedule: Q01DX009 (ip), vehicle: saline); 105 % of control (dose: 4.0 mg/kg/injection, schedule: Q01DX009 (ip), vehicle: saline); 117 % of control (dose: 8.8 mg/kg/injection, schedule: Q01DX009 (ip), vehicle: saline); 121 % of control (dose: 13.0 mg/kg/injection, schedule: Q01DX009 (ip), vehicle: saline); 121 % of control (dose: 20.0 mg/kg/injection, schedule: Q01DX009 (ip), vehicle: saline); 163 % of control (dose: 50.0 mg/kg/injection, schedule: Q01DX009 (ip), vehicle: saline). Moreover, the T/C (dose: 75.0 mg/kg/injection, schedule: Q## X003 (ip), vehicle: saline) was 122 % of control; the T/C under setting [10] was 100 % of control; the T/C (dose: 600.0 mg/kg/injection, schedule: Q## X003 (ip), vehicle: saline) is 102 % of control.
`CC(C#N)(CCC(=O)O)N=NC(C)(C#N)CCC(=O)O` (stereo not given): the T/C (dose: 100.0 mg/kg/injection, schedule: Q01DX001 (ip), vehicle: saline) was 102 % of control; the T/C (dose: 200.0 mg/kg/injection, schedule: Q01DX001 (ip), vehicle: saline) is 103 % of control; the T/C (dose: 400.0 mg/kg/injection, schedule: Q01DX001 (ip), vehicle: saline) was 108 % of control.
Consider `CC(=O)OCCSc1ccc(C)cc1`, for which the T/C reads like this: under setting [11], 100 % of control; under setting [12], 103 % of control; under setting [13], 100 % of control.
For `CC(=O)Nc1cc2c(cc1Br)-c1ccc(F)cc1C2`, the T/C is, setting by setting: (dose: 200.0 mg/kg/injection, schedule: Q01DX Z (ip), vehicle: saline) 98 % of control; (dose: 400.0 mg/kg/injection, schedule: Q01DX Z (ip), vehicle: saline) 102 % of control; (dose: 800.0 mg/kg/injection, schedule: Q01DX Z (ip), vehicle: saline) 110 % of control.
In the case of `CCOC(=O)COc1ccccc1Cl`, the T/C (dose: 1.56 mg/kg/injection, schedule: Q04DX002 (ip), vehicle: Klucel (hydroxypropylcellulose) (HPC)) was 115 % of control; the T/C (dose: 3.13 mg/kg/injection, schedule: Q04DX002 (ip), vehicle: Klucel (hydroxypropylcellulose) (HPC)) was 105 % of control; the T/C (dose: 6.25 mg/kg/injection, schedule: Q04DX002 (ip), vehicle: Klucel (hydroxypropylcellulose) (HPC)) is 108 % of control; the T/C (dose: 12.5 mg/kg/injection, schedule: Q04DX002 (ip), vehicle: Klucel (hydroxypropylcellulose) (HPC)) was 106 % of control; the T/C (dose: 25.0 mg/kg/injection, schedule: Q04DX002 (ip), vehicle: Klucel (hydroxypropylcellulose) (HPC)) was 95 % of control; the T/C (dose: 50.0 mg/kg/injection, schedule: Q04DX002 (ip), vehicle: Klucel (hydroxypropylcellulose) (HPC)) was 97 % of control.
For the molecule `O=C(Nc1ccccc1F)OCCOc1ccccc1Cl`, the T/C by setting is: under setting [4], 115 % of control; under setting [6], 112 % of control; under setting [8], 124 % of control.
As to `Nc1cccc(-c2nc3[nH]ncc3c(=O)[nH]2)c1`, the T/C runs as follows: (dose: 25.0 mg/kg/injection, schedule: Q01DX001 (ip), vehicle: Klucel (hydroxypropylcellulose) (HPC)) 100 % of control; (dose: 50.0 mg/kg/injection, schedule: Q01DX001 (ip), vehicle: Klucel (hydroxypropylcellulose) (HPC)) 98 % of control; (dose: 100.0 mg/kg/injection, schedule: Q01DX001 (ip), vehicle: Klucel (hydroxypropylcellulose) (HPC)) 93 % of control.
Take `O=C1NC(=O)C2C3C=CC(C12)C1C2C(=O)NC(=O)C2C31` (stereo not given): the T/C reads like this: under setting [1], 102 % of control; under setting [2], 95 % of control; under setting [3], 111 % of control; under setting [14], 178 % of control; under setting [15], 90 % of control.
Regarding `O=C(/C=C(\C(=O)c1ccccc1)c1ccccc1)c1ccc(-c2ccccc2)cc1`, the T/C reads like this: under setting [11], 97 % of control; under setting [12], 101 % of control; under setting [13], 93 % of control.
In the case of `CC(C)CCCC(C)C1CCC2C3CC=C4CC(S)CCC4(C)C3CCC12C` (stereo not given), the T/C was 100 % of control (dose: 60.0 mg/kg/injection, schedule: Q04DX003 (sc), vehicle: steriod suspending solution); 109 % of control (dose: 120.0 mg/kg/injection, schedule: Q04DX003 (sc), vehicle: steriod suspending solution); 105 % of control (dose: 240.0 mg/kg/injection, schedule: Q04DX003 (sc), vehicle: steriod suspending solution).
Turning to `CN(C)C(=O)Sc1c(Cl)cc(S(=O)(=O)F)cc1Cl`, the T/C under setting [6] is 105 % of control.
For `C1=C(c2ccccc2)CCCCC1`, the T/C under setting [14] is 87 % of control; the T/C (dose: 100.0 mg/kg/injection, schedule: Q04DX003 (ip), vehicle: saline with Tween-80) was 95 % of control; the T/C (dose: 200.0 mg/kg/injection, schedule: Q01DX009 (ip), vehicle: saline with Tween-80) is 96 % of control; the T/C (dose: 200.0 mg/kg/injection, schedule: Q04DX003 (ip), vehicle: saline with Tween-80) is 100 % of control; the T/C under setting [15] is 99 % of control; the T/C (dose: 400.0 mg/kg/injection, schedule: Q04DX003 (ip), vehicle: saline with Tween-80) was 98 % of control.
In the case of `NCC(=O)NC(CC(N)=O)C(=O)O` (stereo not given) (H-Gly-[ξN]-OH), the T/C (dose: 100.0 mg/kg/injection, schedule: Q01DX009 (ip), vehicle: saline) was 97 % of control; the T/C under setting [10] was 102 % of control; the T/C (dose: 400.0 mg/kg/injection, schedule: Q01DX009 (ip), vehicle: saline) is 97 % of control.
As for `CC(C)C1=CC23CCC4C(C)(C(=O)O)CCCC4(C)C2CC1C1C(=O)N(CCCN(C)C)C(=O)C13` (stereo not given), the T/C (dose: 75.0 mg/kg/injection, schedule: Q01DX001 (ip), vehicle: other) was 96 % of control and the T/C (dose: 150.0 mg/kg/injection, schedule: Q01DX001 (ip), vehicle: other) was 94 % of control.
As for `Cc1ccc(C)c2c(Cl)c3c(C)ccc(C)c3nc12`, the T/C reads like this: under setting [4], 98 % of control; (dose: 100.0 mg/kg/injection, schedule: Q04DX003 (ip), vehicle: other) 100 % of control; under setting [6], 90 % of control; (dose: 200.0 mg/kg/injection, schedule: Q04DX003 (ip), vehicle: other) 97 % of control; under setting [8], 96 % of control; (dose: 400.0 mg/kg/injection, schedule: Q04DX003 (ip), vehicle: other) 95 % of control.
For `CN(C(=O)OCc1ccccc1)c1ccc(C(=O)NC(CCC(=O)O)C(=O)O)cc1` (stereo not given), the T/C by setting is: (dose: 100.0 mg/kg/injection, schedule: Q01DX001 (ip), vehicle: carboxymethylcellulose (CMC)) 94 % of control; (dose: 200.0 mg/kg/injection, schedule: Q01DX001 (ip), vehicle: carboxymethylcellulose (CMC)) 102 % of control; (dose: 400.0 mg/kg/injection, schedule: Q01DX001 (ip), vehicle: carboxymethylcellulose (CMC)) 96 % of control.
